Reference: patent US6008251A, “Retinoid-like compounds” (Bristol-Myers Squibb Company, priority 1998, dated 1999)

Columns and labels:
[1] = system: squamous-cell carcinoma of the head and neck; details: cited from earlier work
HL60 cells = experiment: Differentiation and apoptosis of HL 60 cells (NBT staining); type: cell-based; details: for EC50 (culture day necessary to convert cells into a differentiated or apoptosed phenotype): 1 μM compound, culture up to 9 days, NBT staining
Experimental: HL 60 cells were evaluated for the effect of retinoic acid and the compound of Example 1 on both differentiation and apoptosis end points by the method described in Molecular and Cellular Biology, 15, 3540-3551 (1995). Cells were grown in culture for times up to 9 days in the presence of 1 μM all-trans retinoic acid (t-RA) or 1 μM compound of Example 1. At the end of each day of the culture period, cells were washed and stained with NBT (nitro blue tetrazolium) and counted.

SMILES	prevention of second primary tumors (in words) [1]	EC50 (culture day necessary to convert cells into a differentiated or apoptosed phenotype) (HL60 cells)	activity in this assay compared with t-RA (in words) (HL60 cells; 1 μM, compared with 1 μM t-RA)	percentage of either differentiated or apoptosed HL60 cells (HL60 cells; 1 μM, day 1)	percentage of either differentiated or apoptosed HL60 cells (HL60 cells; 1 μM, day 2)	percentage of either differentiated or apoptosed HL60 cells (HL60 cells; 1 μM, day 3)	percentage of either differentiated or apoptosed HL60 cells (HL60 cells; 1 μM, day 4)	percentage of either differentiated or apoptosed HL60 cells (HL60 cells; 1 μM, day 5)	percentage of either differentiated or apoptosed HL60 cells (HL60 cells; 1 μM, day 6)	percentage of either differentiated or apoptosed HL60 cells (HL60 cells; 1 μM, day 7)	percentage of either differentiated or apoptosed HL60 cells (HL60 cells; 1 μM, day 8)	percentage of either differentiated or apoptosed HL60 cells (HL60 cells; 1 μM, day 9)
CC1=C(/C=C/C(C)=C/C=C/C(C)=C\C(=O)O)C(C)(C)CCC1 [Isotretinoin]	useful in prevention of second primary tumors											
CC1(C)C(=O)C(C)(C)c2cc(C(=O)Nc3ccc(C(=O)O)cc3)ccc21 [Example 1, 4(1',1',3',3'-Tetramethyl-2'-keto-indan-5'-carboxamido)benzoicacid]		4.0 days	comparable to t-RA	11%	22%	40%	50%	61%	78%	85%	95%	93%
CC1=C(/C=C/C(C)=C/C=C/C(C)=C/C(=O)O)C(C)(C)CCC1 [all-trans retinoic acid]		3.2 days		21%	23%	48%	80%	95%	96%	97%	98%	97%
